Results on one sequence are retold here after paper PMC4763182 (Scientific Reports, 2016).

Data set [1] concerns binding of 125I-Stx2 to HeLa cells. It is filed as cell-based.
Data set [2] concerns recombinant histidine-tagged Stx2B subunit (2BH). It is filed as binding, Escherichia coli.
Data set [3] concerns Stx2 cytotoxicity toward HeLa cells.

As to HNPMSFPTPRLY [HN-11], in data set [1], the “inhibitory effect on the uptake of Stx2” value is recorded as “almost no inhibitory effect”. Besides, in data set [2], the “concentration dependence of binding to 2BH” value was “did not significantly change”. Moreover, the “inhibitory effect on Stx2 cytotoxicity” value in data set [3] is listed as “Almost no inhibitory effect”.
